Data as given in US9976141B2, “Compositions and methods for inhibiting gene expression of Hif2alpha” (Arrowhead Madison Inc., priority 2015, dated 2018).
Several values for one entry are separate records, joined by “and”; a condition that tells them apart may be missing. Equal entries are not always repeated.

test system: human (tumor) Hif2α (EPAS1) mRNA; test: Hif2α knockdown in orthotopic RCC tumor bearing mice, single injection of RNAi trigger-delivery polymer conjugate, RT-qPCR (Table 7); assay type: in vivo; conditions: RNAi trigger 50 μg, polymer 064 125 μg; single tail vein injection; relative to isotonic glucose
How it was run: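 A single intravenous dose of Hif2α RNAi trigger–delivery polymer conjugate, or isotonic glucose vehicle, was given to nude mice with subcapsular A498-SEAP renal tumours (about 5–6 weeks old). At the indicated time, tumour RNA was assayed by biplex TaqMan qPCR against CycA, and relative expression was calculated by ΔΔCT versus vehicle.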

Substance | Relative Expression day 4 (Hif2α mRNA in kidney tumor)
AD02074 (antisense TUUCAUGAAAUCGUUACGUTT; sense ACGUAACGAUUUCAUGAAAT; Hif2alpha RNAi agent antisense strand; modified_base 2,4,6,8,10,14,16,18 /mod_base = “2′-deoxy-2′-fluoro corresponding nucleoside”; modified_base 3,5,7,9,11,12,13,15,17,19 /mod_base = “2′-O-methyl corresponding nucleoside”; modified_base 2,3,21 /mod_base = “5′-phosphorothioate corresponding nucleotide”; Hif2alpha RNAi agent sense strand; modified_base 1,3,5,7,8,9,11,13,15,17,19 /mod_base = “2′-deoxy-2′-fluoro corresponding nucleoside”; modified_base 2,4,6,10,12,14,16,18 /mod_base = “2′-O-methyl corresponding nucleoside”; modified_base 20 /mod_base = “3′-3′-linked nucleotide”; modified_base 1) | 0.566
AD02692 (antisense UUUCAUGAAAUCGUUACGUUG; sense ACGUAACGAUUUCAUGAAAT; Hif2alpha RNAi agent antisense strand; modified_base 2,4,6,8,10,14,16,18 /mod_base = “2′-deoxy-2′-fluoro corresponding nucleoside”; modified_base 1,3,5,7,9,11,12,13,15,17,19,20,21 /mod_base = “2′-O-methyl corresponding nucleoside”; modified_base 2,3,20,21 /mod_base = “5′-phosphorothioate corresponding nucleotide”; Hif2alpha RNAi agent sense strand; modified_base 3,5,7,8,9,13,15,17 /mod_base = “2′-deoxy-2′-fluoro corresponding nucleoside”; modified_base 1,2,4,6,10,11,12,14,16,18,19 /mod_base = “2′-O-methyl corresponding nucleoside”; modified_base 20 /mod_base = “3′-3′-linked nucleotide”; modi) | 0.092

same assay, conditions: RNAi trigger 75 μg, polymer 064 187.5 μg; single tail vein injection; relative to isotonic glucose

Substance | Relative Expression day 4 (Hif2α mRNA in kidney tumor)
AD02691 (antisense UUUCAUGAAAUCGUUACGUUG; sense ACGUAACGAUUUCAUGAAAT; Hif2alpha RNAi agent antisense strand; modified_base 2,4,6,8,10,14,16,18 /mod_base = “2′-deoxy-2′-fluoro corresponding nucleoside”; modified_base 1,3,5,7,9,11,12,13,15,17,19,20,21 /mod_base = “2′-O-methyl corresponding nucleoside”; modified_base 2,3,20,21 /mod_base = “5′-phosphorothioate corresponding nucleotide”; Hif2alpha RNAi agent sense strand; modified_base 1,3,5,7,8,9,11,13,15,17 /mod_base = “2′-deoxy-2′-fluoro corresponding nucleoside”; modified_base 2,4,6,10,12,14,16,18,19 /mod_base = “2′-O-methyl corresponding nucleoside”; modified_base 20 /mod_base = “3′-3′-linked nucleotide”; modi) | 0.124
AD02692 (antisense UUUCAUGAAAUCGUUACGUUG; sense ACGUAACGAUUUCAUGAAAT; Hif2alpha RNAi agent antisense strand; modified_base 2,4,6,8,10,14,16,18 /mod_base = “2′-deoxy-2′-fluoro corresponding nucleoside”; modified_base 1,3,5,7,9,11,12,13,15,17,19,20,21 /mod_base = “2′-O-methyl corresponding nucleoside”; modified_base 2,3,20,21 /mod_base = “5′-phosphorothioate corresponding nucleotide”; Hif2alpha RNAi agent sense strand; modified_base 3,5,7,8,9,13,15,17 /mod_base = “2′-deoxy-2′-fluoro corresponding nucleoside”; modified_base 1,2,4,6,10,11,12,14,16,18,19 /mod_base = “2′-O-methyl corresponding nucleoside”; modified_base 20 /mod_base = “3′-3′-linked nucleotide”; modi) | 0.089 and 0.121

same assay, conditions: RNAi trigger 100 μg, polymer 064 250 μg; single tail vein injection; relative to isotonic glucose

Substance | Relative Expression day 4 (Hif2α mRNA in kidney tumor)
AD01888 (antisense UCUAGCAACAAAACCUUAATT; sense UUAAGGUUUUGUUGCUAGAT; Hif2alpha RNAi agent antisense strand; modified_base 2,4,6,8,10,12,14,15,18 /mod_base = “2′-deoxy-2′-fluoro corresponding nucleoside”; modified_base 1,3,5,7,9,11,13,16,17,19 /mod_base = “2′-O-methyl corresponding nucleoside”; modified_base 2,3,21 /mod_base = “5′-phosphorothioate corresponding nucleotide”; Hif2alpha RNAi agent sense strand; modified_base 1,3,4,7,9,11,13,15,17,19 /mod_base = “2′-deoxy-2′-fluoro corresponding nucleoside”; modified_base 2,5,6,8,10,12,14,16,18 /mod_base = “2′-O-methyl corresponding nucleoside”; modified_base 20 /mod_base = “3′-3′-linked nucleotide”; modified_base) | 0.209
AD01889 (antisense UCUAGCAACAAAACCUUAATT; sense UUAAGGUUUUGUUGCUAGAT; Hif2alpha RNAi agent antisense strand; modified_base 2,4,6,9,10,12,14,15,18 /mod_base = “2′-deoxy-2′-fluoro corresponding nucleoside”; modified_base 1,3,5,7,8,11,13,16,17,19 /mod_base = “2′-O-methyl corresponding nucleoside”; modified_base 2,3,21 /mod_base = “5′-phosphorothioate corresponding nucleotide”; Hif2alpha RNAi agent sense strand; modified_base 3,4,7,9,13,15,17 /mod_base = “2′-deoxy-2′-fluoro corresponding nucleoside”; modified_base 1,2,5,6,8,10,11,12,14,16,18,19 /mod_base = “2′-O-methyl corresponding nucleoside”; modified_base 20 /mod_base = “3′-3′-linked nucleotide”; modified_base) | 0.282
AD01890 (antisense UGUAAAACAAUUGUGUACUTT; sense AGUACACAAUUGUUUUACAT; Hif2alpha RNAi agent antisense strand; modified_base 2,4,6,8,10,13,14,16,18 /mod_base = “2′-deoxy-2′-fluoro corresponding nucleoside”; modified_base 1,3,5,7,9,11,12,15,17,19 /mod_base = “2′-O-methyl corresponding nucleoside”; modified_base 2,3,21 /mod_base = “5′-phosphorothioate corresponding nucleotide”; Hif2alpha RNAi agent sense strand; modified_base 1,3,5,8,9,11,13,15,17,19 /mod_base = “2′-deoxy-2′-fluoro corresponding nucleoside”; modified_base 2,4,6,7,10,12,14,16,18 /mod_base = “2′-O-methyl corresponding nucleoside”; modified_base 20 /mod_base = “3′-3′-linked nucleotide”; modified_base) | 0.256
AD01891 (antisense UGUAAAACAAUUGUGUACUTT; sense AGUACACAAUUGUUUUACAT; Hif2alpha RNAi agent antisense strand; modified_base 2,4,6,8,10,13,14,16,18 /mod_base = “2′-deoxy-2′-fluoro corresponding nucleoside”; modified_base 1,3,5,7,9,11,12,15,17,19 /mod_base = “2′-O-methyl corresponding nucleoside”; modified_base 2,3,21 /mod_base = “5′-phosphorothioate corresponding nucleotide”; Hif2alpha RNAi agent sense strand; modified_base 3,5,8,9,11,13,17 /mod_base = “2′-deoxy-2′-fluoro corresponding nucleoside”; modified_base 1,2,4,6,7,10,12,14,15,16,18,19 /mod_base = “2′-O-methyl corresponding nucleoside”; modified_base 20 /mod_base = “3′-3′-linked nucleotide”; modified_base) | 0.189
AD01892 (antisense UGUAAAACAAUUGUGUACUTT; sense AGUACACAAUUGUUUUACAT; Hif2alpha RNAi agent antisense strand; modified_base 2,4,6,8,10,12,14,15,18 /mod_base = “2′-deoxy-2′-fluoro corresponding nucleoside”; modified_base 1,3,5,7,9,11,13,16,17,19 /mod_base = “2′-O-methyl corresponding nucleoside”; modified_base 2,3,21 /mod_base = “5′-phosphorothioate corresponding nucleotide”; Hif2alpha RNAi agent sense strand; modified_base 1,3,4,7,9,11,13,15,17,19 /mod_base = “2′-deoxy-2′-fluoro corresponding nucleoside”; modified_base 2,5,6,8,10,12,14,16,18 /mod_base = “2′-O-methyl corresponding nucleoside”; modified_base 20 /mod_base = “3′-3′-linked nucleotide”; modified_base) | 0.146
AD01893 (antisense UGUAAAACAAUUGUGUACUTT; sense AGUACACAAUUGUUUUACAT; Hif2alpha RNAi agent antisense strand; modified_base 2,4,6,8,10,12,14,15,18 /mod_base = “2′-deoxy-2′-fluoro corresponding nucleoside”; modified_base 1,3,5,7,9,11,13,16,17,19 /mod_base = “2′-O-methyl corresponding nucleoside”; modified_base 2,3,21 /mod_base = “5′-phosphorothioate corresponding nucleotide”; Hif2alpha RNAi agent sense strand; modified_base 3,4,7,9,11,13,17 /mod_base = “2′-deoxy-2′-fluoro corresponding nucleoside”; modified_base 1,2,5,6,8,10,12,14,15,16,18,19 /mod_base = “2′-O-methyl corresponding nucleoside”; modified_base 20 /mod_base = “3′-3′-linked nucleotide”; modified_base) | 0.115
